From patent US20240165196A1, “Beta-Lactamase Inhibitors” (VIB VZW, priority 2021, published 2024)
Ends that are not written are not given here.

Tests used:
[1] = test system: TEM beta-lactamase in E. coli UZ_TEM104; test: western blot of inclusion body (IB) fraction for TEM; type: cell-based; details: 12 μM peptide in PBS, 120 min
Method: (§1) FIGS. 3A-3P. […] Three replicates are shown for each condition. […] A single representative image is shown. […] Three replicates are shown for each condition. (FIG. 3E) [Left] […] [Middle] […] [Right] […] A single representative image is shown. […] A single representative image is shown. […] A single representative image is shown. […] A single representative blot is shown. […] 106 cells were analysed for the plot.
(§2) Moreover, we confirmed the presence of the protein in the correct band using mass spectrometry proteomics. We repeated this with a strain expressing SHV-154, blotting with a polyclonal rabbit antibody raised against the recombinant SHV enzyme described above (FIG. 3K).
(§3) The overnight culture of bacteria was centrifuged for 30 min at 4,000×g and cells were washed with physiological water (NaCl 0.9%). Bacterial cells were treated by peptide at the appropriate concentration for at least 2 h at 37 C. The bacterial pellets were washed with 10 mL buffer A (50 mM HEPES, pH 7.5, 300 mM NaCl, 5 mM β-mercaptoethanol, 1.0 mM EDTA) and centrifuged at 4° C. for 30 min at 4,000×g. The supernatant was discarded and 20 mL of buffer B (buffer A plus 1 tablet of the protease and phosphatase Inhibitor Cocktail (ab201119, Abcam, UK) was added to the bacterial pellet. In order to break the cells, a High-Pressure Homogenizer (Glen Creston Ltd) with the pressure set to 20,000-25,000 psi was used on ice, and in addition, the suspensions were sonicated (Branson Digital sonifier 50/60 Hz) on ice with alternating 2 min cycle (15 pulses at 50% power with 30 s pauses on ice, until completing 2 min total sonication time). The lysed cells were centrifuged at 4° C. for 30 min at 11,000×g. The precipitated fraction was afterward re-suspended with 10 mL buffer D (buffer A plus 0.8% (V/V) Triton X-100, 0.1% sodium deoxycholate) and the suspension was sonicated to ensure the pellet is completely dissolved. This step was repeated three times. Centrifugation was performed at 4° C. for 30 min at 11,000×g. Finally, to solubilize IBs, the pellet was suspended in 500 ul of buffer F (50 mM HEPES, pH 7.5, 8.0 M urea) of precipitated fraction.

[2] = test system: E. coli SHV-11; test: checkerboard assay (FICI), peptide versus penicillin G; type: cell-based; details: strain with SHV-11; FICI below 0.5 = synergy
Excerpt: (§4) FIGS. 2A-2M. (FIG. 2A) TEM mutations and their effects on stability (total energy) as predicted by FoldX. […] Dashed line indicates a total energy difference of 0.5 kcal/mol, the FoldX cut-off above which mutations are considered to be destabilizing. (FIG. 2B) Barplot mapping mutations in (FIG. 2A) to the TEM sequence and indicating occurrence. […] The bar heights correspond to the number of times a mutation occurs across different TEM variants (right-hand y-axis). The color coding is identical to that in (FIG. 2A). Red line indicates the TANGO scores (indicated on the left-hand y-axis), with peaks corresponding to APRs. (FIG. 2C) Mapping of mutations in (FIG. 2A) and (FIG. 2B) to the TEM structure (pdb 1xpb). Protein surface is shown in gray, color coding of mutations is identical to (FIG. 2A) and (FIG. 2B). (FIGS. 2D, 2E, and 2F) Temperature-dependent evolution of the Right-Angle Light Scattering (RALS) intensity during a temperature ramp, similar as in FIG. 1F for key mutants of TEM1, namely TEM-10 (FIG. 2D), TEM-30 (FIG. 2E) and TEM-155 (FIG. 2F). Experiments were shown in triplicate, single repeat is shown. (FIG. 2G) Schematic representation of the structure of the peptides. APR—Aggregation Prone Region, R—Arginine. (FIG. 2H) Ribbon representation of the superposition of the crystal structures of TEM (green, pdb id 1bt5) and SHV (blue, pdb id 1shv). The catalytic site of the beta-lactamase activity is indicated and location of APR3 is shown in red. (FIG. 2I) TANGO aggregation score and alignment of APR3 in TEM and SHV. (FIG. 2J) Fractional Inhibitory Concentration Index determination of 5 peptides versus penicillin on E. coli TEM-104. […] FICI values below 0.5 indicate synergy. Values between 0.5 and 1.0 indicate additivity and values greater than 1 indicate indifference between the combined substances. (FIG. 2K) Same as J for E. coli SHV-11. (FIG. 2L) Same as J for a kanamycin resistant E. coli strain. (FIG. 2M) FICI values for the TEM3.2 peptide on a range of E. coli strains.
(§5) Moreover, the core sequence of peptide TEM3.0 also occurs in the structurally related SHV β-lactamase ([…]). Although the C-terminal extension residues H and N have been replaced with physicochemically similar R and Q, respectively (FIG. 2H). […] To quantify the synergy between these four peptides and penicillin G, we performed a so-called checkerboard assay, which allows to compare the activity of two test compounds co-incubated (here peptide and a beta-lactam antibiotic), to their individual activities in isolation. The result from the assay is quantified as the Fractional Inhibitory Concentration Index (FICI), and it is generally accepted that values below 0.5 indicate synergistic effects between the compounds. As a control, we generated a peptide using the same design, but based on a previously identified APR from the β-galactosidase enzyme (BGAL)^16 from E. coli (APR=SVIIWSL, peptide sequence=[…]) that has a MIC value>100 μg/mL on E. coli strain UZ_TEM104. We evaluated the synergy of the peptides with penicillin G in clinical E. coli isolates carrying the TEM ([…]) or SHV enzymes ([…]). […] As a further control, we also performed a checkerboard assay with an E. coli strain that was resistant to the aminoglycoside kanamycin and observed no synergy between this unrelated antibiotic and our peptides (FIG. 2L), in line with the notion that we are inhibiting a beta-lactamase but not the aminoglycoside degrading enzyme. […] The list of strains included some that harbored only TEM or SHV, but others contained additional Ambler Class A (CTX-M or […]) or Class B (VIM and NDM) beta-lactamases. […] In contrast, the presence of the NDM-type […], that does have a high affinity for Ampicillin and that is completely distinct in sequence and structure from TEM and SHV, seemed to completely prevent the effect of the peptide on the beta-lactam sensitivity of the strains in which it occurred (see also further). […]

[3] = test system: E. coli TEM-104; test: as above; type: cell-based; details: strain with TEM; FICI below 0.5 = synergy
Excerpt: as §4, §5

[4] = test system: SHV beta-lactamase in strain expressing SHV-154; test: western blot of inclusion body (IB) fraction for SHV; type: cell-based, E. coli; details: 12 μM peptide in PBS, 120 min
Method: as §1, §2, §3

[5] = test system: E. coli strain UZ_TEM104; type: cell-based; details: penicillin alone, buffer, additive 0 μg/mL
[6] = test system: E. coli UZ_TEM104; test: FACS analysis with Propidium Iodide and pFTAA; type: cell-based; details: 400 μg/mL penicillin G only, 4 h
Method: as §1
First, we tested the assay using a mixture of live and heat inactivated (FIG. 3L) or just live bacteria (FIG. 3M), showing that heat inactivated, but not live bacteria are stained with PI, and neither are stained with pFTAA.
Bacterial cells in the cleaned suspensions were stained with both propidium iodide (PI) and FITC peptide to evaluate the killing rate and peptide uptake in a two-dimensional analysis. […] Treated bacteria washed with PBS buffer two times. One microliter of PI (Invitrogen) was added to the bacteria and incubated for 5 min. The bacteria were used by FACS tubes for 40000 events. To correlate the activity of the peptides with cell death, the fluorescence intensity was measured in two channels using the Gallios™ Flow Cytometer (Beckman Coulter, USA), PI: excitation 536 nm and emission 617 nm, FITC: excitation 490 nm and emission 525 nm. Heated bacteria at 90° C. for 10 min were used as PI-positive control.

[7] = test system: strain containing TEM-1; test: checkerboard assay (FICI), peptide and penicillin; type: cell-based, E. coli; details: strain TEM-1
Excerpt: (§6) FIGS. 4A-4K. […] IV—Intravenous, IP—Intraperitoneal, SC—Subcutaneously. The data shown is from a single experiment with 4 animals per group. […] (ns—non significant, #—P>0.05, *—P≤0.05, ***—P≤0.01, ****—P≤0.001). (FIG. 4G) FICI plot as in FIG. 2, for the E. coli strains indicated and the combination of penicillin and the TEM3.2 peptide. […] (FIG. 4J) Same as FIG. 4H for peptide BGAL. (FIG. 4K) Same as FIG. 4H for peptide P33.
(§7) As we wondered about the generality of our peptide design approach, we set out to design a peptide to inactivate a structurally unrelated beta-lactamase. To this end we turned to the Ambler class B beta-lactamase NDM-1 that confers resistance to many beta-lactam antibiotics, including carbapenems, and strains carrying this enzyme was soon dubbed ‘superbugs’ that are only partially sensitive to colistin and tigecycline^49. This enzyme was first isolated from a patient in 200850, by 2010 could be detected in clinical isolates throughout the UK and India^51 and by 2015 was detected in over 70 countries worldwide^52.
(§8) For the analysis of the synergy between the peptides with other antibiotics, a checkerboard assay was performed. Referring to the MICs of the selected peptides, checkerboard assay was designed to define their FICIs (Fractional Inhibitory Concentration Index) in combinations against different clinical isolates^62,63. Briefly, a total volume of 100 μL of Mueller-Hinton broth was distributed into each well of the 96-well plates. The first compound (peptide) of the combination was serially diluted vertically (128, 64, 32, 16, 8, 4, 2, 0 μg/mL) while the other drug (Beta-lactam or Kanamycin) was diluted horizontally in 96 well plate (from 3200 to 3 μg/mL). The total volume of each microtiter well was inoculated with 100 μL of MHB containing 1×10^6 CFU/mL bacteria. The plates were incubated at 37° C. for 24 h under aerobic conditions without shaking. Calculation of the FICI is used to analyze the results of the checkerboard assay by estimating the degree of synergistic effect. FICI is calculated as the sum of the individual fractional inhibitory concentrations (FICs) for each drug (where MIC A and MIC B denote the MIC of each drug alone, and MIC AA+B and MIC BA+B denote the concentrations of A and B in the drug combination). FICI=(MIC AA+B/MIC A)+(MIC BA+B/MIC B). With FICI≤0.5, the combination of antibiotics considered as a synergistic effect, 0.5<FICI≤1 indicates additivity, FICI>1 indicates indifference.

[8] = test system: strain containing NDM5b; test: checkerboard assay (FICI), peptide and penicillin; type: cell-based, E. coli
Excerpt: as §6, §7, §8

[9] = test system: strain containing NDM5a; test: checkerboard assay (FICI), peptide and penicillin; type: cell-based, E. coli
Excerpt: as §6, §7, §8

Row | Compound | enrichment of the TEM protein in inclusion bodies (western blot) [1] | synergy with penicillin G (FICI) [2] | synergy with penicillin G (FICI) [3] | accumulation of the SHV enzyme in inclusion bodies (western blot) [4] | MIC penicillin [5] | change in PI (cell death) and pFTAA (aggregation) channels [6] | synergy with penicillin (FICI) [7] | synergy with penicillin (FICI) [8] | synergy with penicillin (FICI) [9]
1 | RLTAFLRQRRPRLTAFLHNRR (non-natural molecule) [TEM3.3] | clear enrichment of the TEM protein in IBs | synergy | synergy | accumulates in IBs |  |  |  |  | 
2 | CC1(C)S[C@@H]2[C@H](NC(=O)Cc3ccccc3)C(=O)N2[C@H]1C(=O)O [penicillin G, Benzylpenicillin sodium] |  |  |  |  | 1600 µg/mL | no major change in either channel |  |  | 
3 | RLAAALMLRRPRAQILNWIRR (NDM1-2) |  |  |  |  |  |  | not in a strain containing TEM-1 | synergy | synergy
4 | RSVIIWSLGRRPRSVIIWSLGRR [BGAL] |  | no synergy | no synergy |  |  |  | neither showed synergy | neither showed synergy | neither showed synergy
5 | RLTAFLRQRRPRLTAFLRQRR (non-natural molecule) [TEM3.1] | not | clear synergy |  | accumulates in IBs |  |  |  |  | 
6 | RTAQILNWRRPRTAQILNWRR (NDM1-1) |  |  |  |  |  |  | not in a strain containing TEM-1 | synergy | synergy
